Assay results as given in PubChem BioAssay AID1963830 (Molecular Pharmacology Branch, DTP, NCI, 2024).

Tested on: 922993-354-T-J3-PDC complex spheroid viability
Test: Anticancer human tumor 922993-354-T-J3-PDC patient-derived endometrial carcinoma cell line growth inhibition [POLQ]
Details: for IC50: curve of first compound; for viability, T/C: stronger effect = lower value; active means viability on the fitted dose curve at most 10% of control; inactive means the rest
Summary of the method: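 PDC + HUVEC + MSC complex spheroids; POLQ inhibitors ± partner drugs; top conc. at/near clinical Cmax, else 10 microM (SN-38 1 microM), half-log dilutions; 37 degrees C, 5% CO2.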

[1] = second compound 0.0316 µM, first compound 0.0316 µM
[2] = second compound 0.0316 µM, first compound 0.1 µM
[3] = second compound 0.0316 µM, first compound 0.316 µM
[4] = second compound 0.0316 µM, first compound 1 µM
[5] = second compound 0.1 µM, first compound 0.0316 µM
[6] = second compound 0.1 µM, first compound 0.1 µM
[7] = second compound 0.1 µM, first compound 0.316 µM
[8] = second compound 0.1 µM, first compound 1 µM
[9] = second compound 0.316 µM, first compound 0.0316 µM
[10] = second compound 0.316 µM, first compound 0.1 µM
[11] = second compound 0.316 µM, first compound 0.316 µM
[12] = second compound 0.316 µM, first compound 1 µM
[13] = second compound 1 µM, first compound 0.0316 µM
[14] = second compound 1 µM, first compound 0.1 µM
[15] = second compound 1 µM, first compound 0.316 µM
[16] = second compound 1 µM, first compound 1 µM
[17] = second compound 3.16 µM, first compound 0.0316 µM
[18] = second compound 3.16 µM, first compound 0.1 µM
[19] = second compound 3.16 µM, first compound 0.316 µM
[20] = second compound 3.16 µM, first compound 1 µM
[21] = second compound 10 µM, first compound 0.0316 µM
[22] = second compound 10 µM, first compound 0.1 µM
[23] = second compound 10 µM, first compound 0.316 µM
[24] = second compound 10 µM, first compound 1 µM
[25] = second compound 0.0316 µM, first compound 3.16 µM
[26] = second compound 0.0316 µM, first compound 10 µM
[27] = second compound 0.1 µM, first compound 3.16 µM
[28] = second compound 0.1 µM, first compound 10 µM
[29] = second compound 0.316 µM, first compound 3.16 µM
[30] = second compound 0.316 µM, first compound 10 µM
[31] = second compound 1 µM, first compound 3.16 µM
[32] = second compound 1 µM, first compound 10 µM
[33] = second compound 3.16 µM, first compound 3.16 µM
[34] = second compound 3.16 µM, first compound 10 µM
[35] = second compound 10 µM, first compound 3.16 µM
[36] = second compound 10 µM, first compound 10 µM
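Further: spheroids exposed to the agents for one week.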
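Wherever viability, T/C is given: 100% = DMSO vehicle control wells.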

CCc1c2c(nc3ccc(O)cc13)-c1cc3c(c(=O)n1C2)COC(=O)[C@]3(O)CC + Cc1cccc(N(C)C(=O)C2C(O)CCN2c2nc(C)cc(C(F)(F)F)c2C#N)c1
11.6 nM: IC50 (second compound 0.0316 µM)
13 nM: IC50 (second compound 3.16 µM)
17 nM: IC50 (second compound 1 µM)
6.84 nM: IC50 (second compound 10 µM)
inactive: viability, T/C (second compound 0.0316 µM, first compound 0.00316 µM) 89.5% | viability, T/C (second compound 0.0316 µM, first compound 0.01 µM) 55% | viability, T/C [1] 15.1% | viability, T/C [2] 12.8% | viability, T/C [3] 12.9% | viability, T/C [4] 15% | viability, T/C (second compound 0.1 µM, first compound 0.00316 µM) 91.8% | viability, T/C (second compound 0.1 µM, first compound 0.01 µM) 63.5% | viability, T/C [5] 20.2% | viability, T/C [6] 11.3% | viability, T/C [7] 12.8% | viability, T/C [8] 16.3% | viability, T/C (second compound 0.316 µM, first compound 0.00316 µM) 100% | viability, T/C (second compound 0.316 µM, first compound 0.01 µM) 63.4% | viability, T/C [9] 19.7% | viability, T/C [10] 11.9% | viability, T/C [11] 12.4% | viability, T/C [12] 17.1% | viability, T/C (second compound 1 µM, first compound 0.00316 µM) 100% | viability, T/C (second compound 1 µM, first compound 0.01 µM) 72.8% | viability, T/C [13] 23.5% | viability, T/C [14] 10.3% | viability, T/C [15] 12.4% | viability, T/C [16] 15.3% | viability, T/C (second compound 3.16 µM, first compound 0.00316 µM) 90.9% | viability, T/C (second compound 3.16 µM, first compound 0.01 µM) 58.3% | viability, T/C [17] 21.7% | viability, T/C [18] 9.8% | viability, T/C [19] 12.3% | viability, T/C [20] 17.4% | viability, T/C (second compound 10 µM, first compound 0.00316 µM) 82.3% | viability, T/C (second compound 10 µM, first compound 0.01 µM) 34.1% | viability, T/C [21] 10.5% | viability, T/C [22] 10% | viability, T/C [23] 13.9% | viability, T/C [24] 17.7%
14.2 nM: IC50 (second compound 0.316 µM)
14.3 nM: IC50 (second compound 0.1 µM)

CNCc1ccc(-c2[nH]c3cc(F)cc4c3c2CCNC4=O)cc1 + Cc1cccc(N(C)C(=O)C2C(O)CCN2c2nc(C)cc(C(F)(F)F)c2C#N)c1
> 10000 nM: IC50 (second compound 0.0316 µM) | IC50 (second compound 0.1 µM) | IC50 (second compound 0.316 µM) | IC50 (second compound 1 µM) | IC50 (second compound 3.16 µM)
inactive: viability, T/C [1] 103% | viability, T/C [2] 101% | viability, T/C [3] 104% | viability, T/C [4] 99.5% | viability, T/C [25] 89.7% | viability, T/C [26] 82.9% | viability, T/C [5] 105% | viability, T/C [6] 101% | viability, T/C [7] 100% | viability, T/C [8] 107% | viability, T/C [27] 89.5% | viability, T/C [28] 90% | viability, T/C [9] 110% | viability, T/C [10] 105% | viability, T/C [11] 96.3% | viability, T/C [12] 97.4% | viability, T/C [29] 92.3% | viability, T/C [30] 86.7% | viability, T/C [13] 110% | viability, T/C [14] 100% | viability, T/C [15] 108% | viability, T/C [16] 90.8% | viability, T/C [31] 94.6% | viability, T/C [32] 90.6% | viability, T/C [17] 105% | viability, T/C [18] 104% | viability, T/C [19] 97% | viability, T/C [20] 90.8% | viability, T/C [33] 97.7% | viability, T/C [34] 82.8% | viability, T/C [21] 105% | viability, T/C [22] 101% | viability, T/C [23] 106% | viability, T/C [24] 87.8% | viability, T/C [35] 84.7% | viability, T/C [36] 44.1%
8530 nM: IC50 (second compound 10 µM)

Nc1ccn(C2OC(CO)C(O)C2(F)F)c(=O)n1 (stereo not drawn) + Cc1cccc(N(C)C(=O)C2C(O)CCN2c2nc(C)cc(C(F)(F)F)c2C#N)c1
inactive: viability, T/C [1] 11.1% | viability, T/C [2] 10.3% | viability, T/C [3] 9.57% | viability, T/C [4] 11.8% | viability, T/C [25] 9.18% | viability, T/C [26] 9.18% | viability, T/C [5] 14.8% | viability, T/C [6] 10.9% | viability, T/C [7] 11.3% | viability, T/C [8] 10.7% | viability, T/C [27] 10.7% | viability, T/C [28] 11% | viability, T/C [9] 11.9% | viability, T/C [10] 11.5% | viability, T/C [11] 11.9% | viability, T/C [12] 9.92% | viability, T/C [29] 8.14% | viability, T/C [30] 9.97% | viability, T/C [13] 12.6% | viability, T/C [17] 11.3%
< 31.6 nM: IC50 (second compound 0.0316 µM) | IC50 (second compound 0.1 µM) | IC50 (second compound 0.316 µM) | IC50 (second compound 1 µM) | IC50 (second compound 3.16 µM) | IC50 (second compound 10 µM)
active: viability, T/C [14] 9.47% | viability, T/C [15] 8.22% | viability, T/C [16] 8.9% | viability, T/C [31] 7.29% | viability, T/C [32] 10.3% | viability, T/C [18] 10.2% | viability, T/C [19] 10.6% | viability, T/C [20] 7.56% | viability, T/C [33] 9.43% | viability, T/C [34] 10.6% | viability, T/C [21] 7.43% | viability, T/C [22] 8.87% | viability, T/C [23] 7.1% | viability, T/C [24] 6.45% | viability, T/C [35] 8.61% | viability, T/C [36] 8.92%

O=C(c1cc(Cc2n[nH]c(=O)c3ccccc23)ccc1F)N1CCN(C(=O)C2CC2)CC1 + Cc1cccc(N(C)C(=O)C2C(O)CCN2c2nc(C)cc(C(F)(F)F)c2C#N)c1
inactive: viability, T/C [1] 104% | viability, T/C [2] 103% | viability, T/C [3] 101% | viability, T/C [4] 113% | viability, T/C [25] 99.2% | viability, T/C [26] 92.4% | viability, T/C [5] 111% | viability, T/C [6] 103% | viability, T/C [7] 111% | viability, T/C [8] 102% | viability, T/C [27] 103% | viability, T/C [28] 109% | viability, T/C [9] 113% | viability, T/C [10] 108% | viability, T/C [11] 104% | viability, T/C [12] 112% | viability, T/C [29] 92.9% | viability, T/C [30] 103% | viability, T/C [13] 96.4% | viability, T/C [14] 108% | viability, T/C [15] 106% | viability, T/C [16] 107% | viability, T/C [31] 99.1% | viability, T/C [32] 109% | viability, T/C [17] 98.3% | viability, T/C [18] 107% | viability, T/C [19] 95.3% | viability, T/C [20] 94.7% | viability, T/C [33] 109% | viability, T/C [34] 106% | viability, T/C [21] 100% | viability, T/C [22] 97.7% | viability, T/C [23] 112% | viability, T/C [24] 104% | viability, T/C [35] 104% | viability, T/C [36] 103%
> 10000 nM: IC50 (second compound 0.0316 µM) | IC50 (second compound 0.1 µM) | IC50 (second compound 0.316 µM) | IC50 (second compound 1 µM) | IC50 (second compound 3.16 µM) | IC50 (second compound 10 µM)
